From ChEMBL document CHEMBL4049422, “Discovery of Novel Indazole Derivatives as Orally Available β3-Adrenergic Receptor Agonists Lacking Off-Target-Based Cardiovascular Side Effects” (J Med Chem, 2017)
≈ marks a conversion by molar mass, not a printed value.

Assays:
CYP2C19 = CYP2C19 (Homo sapiens, UniProt P33261); assay: Inhibition of CYP2C19 (unknown origin) at 10 uM relative to control; type: ADME
CYP1A2 = molecular target: T1, CYP1A2 (Homo sapiens, UniProt P05177); assay: Inhibition of CYP1A2 (unknown origin) at 10 uM relative to control; type: ADME
T1 sequence (P05177 whole entry): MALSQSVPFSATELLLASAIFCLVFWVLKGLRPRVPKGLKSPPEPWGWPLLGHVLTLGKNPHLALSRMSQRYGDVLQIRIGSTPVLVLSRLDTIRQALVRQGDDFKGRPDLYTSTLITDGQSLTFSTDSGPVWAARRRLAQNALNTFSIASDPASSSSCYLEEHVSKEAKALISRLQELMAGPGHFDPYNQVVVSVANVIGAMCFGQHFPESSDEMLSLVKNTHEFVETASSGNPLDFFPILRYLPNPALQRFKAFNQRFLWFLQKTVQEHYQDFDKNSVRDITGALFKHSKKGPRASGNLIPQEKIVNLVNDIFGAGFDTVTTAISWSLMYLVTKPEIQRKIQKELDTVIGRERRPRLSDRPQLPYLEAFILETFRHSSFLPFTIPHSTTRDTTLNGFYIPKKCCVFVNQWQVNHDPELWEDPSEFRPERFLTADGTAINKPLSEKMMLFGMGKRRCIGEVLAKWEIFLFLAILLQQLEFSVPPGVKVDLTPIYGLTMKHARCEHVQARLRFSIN

[1] = Solubility of the compound at pH 1.2 buffer solution after 18 hrs by HPLC analysis; type: physicochemical

CYP2C19, sequence (P33261 whole entry): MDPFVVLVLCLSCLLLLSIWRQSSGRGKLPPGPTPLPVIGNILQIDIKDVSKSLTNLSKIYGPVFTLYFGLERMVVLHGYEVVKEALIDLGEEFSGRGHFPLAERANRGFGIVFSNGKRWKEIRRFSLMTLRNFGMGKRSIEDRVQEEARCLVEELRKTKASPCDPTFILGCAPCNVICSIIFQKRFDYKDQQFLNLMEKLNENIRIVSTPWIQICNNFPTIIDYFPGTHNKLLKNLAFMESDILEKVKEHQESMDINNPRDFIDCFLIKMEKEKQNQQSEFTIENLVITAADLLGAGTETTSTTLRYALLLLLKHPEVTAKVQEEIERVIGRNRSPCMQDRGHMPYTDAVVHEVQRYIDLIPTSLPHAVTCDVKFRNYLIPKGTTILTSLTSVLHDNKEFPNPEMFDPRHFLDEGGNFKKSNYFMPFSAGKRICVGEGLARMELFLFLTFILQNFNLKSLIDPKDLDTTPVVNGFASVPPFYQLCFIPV

inhibition at 10 µM (CYP2C19): < 34% | inhibition at 10 µM (CYP1A2): < 34% | solubility at 18 h [1]: 299 µM (≈ 133 µg/mL)
SMILES: Cc1n[nH]c2cc(OCCNC[C@H](O)c3cccc(NS(=O)(=O)C4CCC4)c3)ccc12
